Key:
[1] = CCK-8 cytotoxicity IC50, HUVEC; details: human, HUVEC umbilical vein endothelial cells
Protocol: HUVEC human umbilical vein endothelial cell strain (purchased from ScienCell Research Laboratories, Cat #8000, Lot #11233)
(§1) a) The compound was serially diluted with DMSO starting from 0.5 μM, using twice echelon dilution.
(§2) The logarithmic growth phase cells were collected and counted. The cells were re-suspended in complete medium, whose concentration was adjusted according to the test results of the cell density optimization, and then seeded into 96-well plates with 100 μl of the cell suspension to each well. The cells were incubated in a 37° C., 100% relative humidity, 5% CO2 incubator for 24 hours.
(§3) b) The test compound was diluted with the medium to the corresponding action concentrations set up, and added into the cells in the plates at 25 μl/well. The test compound was prepared in 9 final action concentrations, which were obtained by sequentially diluted from 500 nM using twice echelon dilution.
(§4) c) The cells were incubated in a 37° C., 100% relative humidity, 5% CO2 incubator for 72 hours.
(§5) d) The medium was removed from the cells, and a complete medium containing 10% CCK-8 was added and incubated in a 37° C. incubator for 1-4 hours.
(§6) e) After gentle shaking, the absorbance at 450 nm of the sample was measured on a SpectraMax M5 Microplate Reader, and the inhibition ratio was calculated using the absorbance at 650 nm as reference.
(§7) The inhibition ratio of the drug on tumor cell growth was calculated as follows: tumor cell growth inhibition %=[(Ac−As)/(Ac−Ab)]×100%
(§8) The IC50 curve was fitted and the IC50 value was calculated using the software Graphpad Prism 5 and using the calculation formula log(inhibitor) vs. normalized response-variable slope or log(inhibitor) vs. response-variable slope.

neutrophil count = assay: Effect on the neutrophil count at equivalent pharmacodynamic dose; details: rats, continuous administration for two weeks (FIG. 3)
Description: Multiple doses of different drugs were administrated to the nude mice respectively and the potency of the drugs in inhibiting the transplanted tumor in the nude mice was investigated. Base on the investigation, the equivalent dose of each drug was identified and converted to rat dose before administrated to the rats. That is, by administrating the rats with relatively equivalent pharmacodynamic dose, the effect of the drugs on the neutrophil count was examined. After continuously administration for two weeks, blood samples were collected and neutrophil counts were measured (FIG. 3).

[2] = system: blood flow distribution in tissues and tumor tissue; assay: Blood flow distribution of tissues and tumor; format: in vivo, nude mice; details: two hours after administration, same pharmacodynamic dose, vs blank vehicle
Description: In this example, the effects of drugs on blood flow distribution of different tissues and organs at the same pharmacodynamic dose were simultaneously tested.

[3] = system: MDA-MB-231 human breast cancer cell strain; assay: CCK-8 cytotoxicity IC50, MDA-MB-231; details: MDA-MB-231, 72 h, read-out: cytotoxicity IC50
Protocol: (§9) To test the cytotoxic IC50 values of 14 candidate compounds against 5 cell strains (MDA-MB-231, HT-1080, AGS, A-673 & HUVEC) using a CCK-8 test kit.
MDA-MB-231 human breast cancer cell strain (purchased from Shanghai Cell Resource Center, Chinese Academy of Sciences)
as §1, §2, §3, §4, §5, §6, §7, §8

tubulin in HuVEC cells = assay: Action on microtubule function, α-tubulin staining in HuVEC; format: cell-based, human; details: 2 μM, 30 minutes, vs DMSO control
Description: Human umbilical vein endothelial cells (HuVEC from Cambrex) were used in this study.

[4] = system: HT-1080 human fibrosarcoma cell strain; assay: CCK-8 cytotoxicity IC50, HT-1080; details: HT-1080, 72 h, read-out: cytotoxicity IC50
Protocol: as §9, §1, §2, §3, §4, §5, §6, §7, §8

[5] = system: AGS human gastric adenocarcinoma cell strain; assay: CCK-8 cytotoxicity IC50, AGS; details: 72 h, read-out: cytotoxicity IC50
Protocol: AGS human gastric adenocarcinoma cell strain (purchased from Shanghai Cell Resource Center, Chinese Academy of Sciences)
as §1, §2, §3, §4, §5, §6, §7, §8

[6] = system: A-673 human rhabdomyosarcoma cell strain; assay: CCK-8 cytotoxicity IC50, A-673; details: A673, 72 h, read-out: cytotoxicity IC50
Protocol: as §9, §1, §2, §3, §4, §5, §6, §7, §8

[7] = system: drug-resistant MES-SA cells (p-glycoprotein induced); assay: Inhibitory effect on tumor proliferation, drug-resistant MES-SA transplanted tumor; format: in vivo; details: drug-resistant MES-SA nude mice, dose that does not reduce body weight, vs blank vehicle (FIG. 1)
Protocol: MES-SA cells (derived from ATCC) were cultured in low concentration of adriamycin for a long time to maintain sufficient cell viability and induced the expression of p-glycoprotein. After culturing for 10 months, the results of induced expression were detected by WB. After successful induction, the cells were cultured for one week in adriamycin-free medium. The tumor cells with adjusted concentration were inoculated into the armpit of nude mice. The transplanted tumors were treated with different drugs when they grew to a certain volume. Different doses of different drugs were administrated to blank mice to explore the drug dose not affecting the body weight of the animals, namely the dose to be administrated to treat the animals with transplanted tumors.

[8] = Stability investigation (10-day accelerated stress testing)
Protocol: The tested conditions included 40° C., 60° C., humidity 75%, humidity 92.5%, and light. And under each condition, moisture, purity, maximum single impurity and total impurity of the compound tested were compared to that of day 0.

[9] = system: tumor cells inoculated in nude mice
Protocol: The nude mice inoculated with tumor cells were administrated with blank vehicle, docetaxel, compound 17 as well as the combination drug of docetaxel and compound 17. The tumor volume was measured at different time period after the administration and the change of tumor volume was evaluated. At the same time, the change of body weight of the nude mice was examined to evaluate the antitumor effect and the toxicity degree of the drug. In addition, based on the above administration and grouping methods, the blood neutrophil count level for normal SD rats was measured before administration and after the final administration to evaluate the influence of the drug on neutrophil counts.

blood neutrophil count = assay: Neutrophil count after compound 17 in combination with docetaxel; format: in vivo; details: normal SD rats, after final administration (FIG. 2C)
[10] = Day 10, sample 1 (no stress condition given)

Question: For `CC(C)(C)c1nc[nH]c1/C=c1\[nH]c(=O)/c(=C/C=C/c2cccc(F)c2)[nH]c1=O` [Compound 7], which IC50 at 72 h [1] is on record?
Answer: 94.9 nM

Question: What about the neutrophil count (neutrophil count) of the same molecule?
Answer: had no obvious effect on neutrophils

Question: What about the “distribution of blood flow in tissues except tumor tissues” value (“distribution of blood flow” below) [2] of the same molecule?
Answer: did not significantly affect the distribution of blood flow in tissues except tumor tissues

Question: What about the “intratumoral blood flow distribution” value [2] of the same molecule?
Answer: can significantly reduce the intratumoral blood flow distribution

Question: And the IC50 [3]?
Answer: 39.5 nM

Question: And the cell membrane blebbing (tubulin in HuVEC cells)?
Answer: induced

Question: And the microtubule depolymerization (tubulin in HuVEC cells)?
Answer: induced

Question: And the IC50 [4]?
Answer: 43.6 nM

Question: And the IC50 [5]?
Answer: 43 nM

Question: What about the IC50 [6] of the same molecule?
Answer: 35.4 nM

Question: And the “anti-tumor proliferation effect (tumor weight)” value (from here on “anti-tumor proliferation effect”) [7]?
Answer: can effectively exert anti-tumor proliferation effects

Question: For `CC(C)(C)c1[nH]cnc1/C=c1\[nH]c(=O)/c(=C/C=C/c2ccc(OC(F)(F)F)cc2)[nH]c1=O` [Compound 10], which IC50 at 72 h [1] is on record?
Answer: 363 nM

Question: And the neutrophil count (neutrophil count)?
Answer: had no obvious effect on neutrophils

Question: And the “distribution of blood flow” value [2]?
Answer: did not significantly affect the distribution of blood flow in tissues except tumor tissues

Question: What about the “intratumoral blood flow distribution” value [2] of the same molecule?
Answer: can significantly reduce the intratumoral blood flow distribution

Question: And the IC50 [3]?
Answer: 105 nM

Question: And the cell membrane blebbing (tubulin in HuVEC cells)?
Answer: induced

Question: And the microtubule depolymerization (tubulin in HuVEC cells)?
Answer: induced

Question: What about the IC50 [4] of the same molecule?
Answer: 224 nM

Question: What about the IC50 [5] of the same molecule?
Answer: 94.9 nM

Question: What about the IC50 [6] of the same molecule?
Answer: 165 nM

Question: What about the “anti-tumor proliferation effect” value [7] of the same molecule?
Answer: can effectively exert anti-tumor proliferation effects

Question: With `COc1ccc(/C=C/C=c2\[nH]c(=O)/c(=C/c3nc[nH]c3C(C)(C)C)[nH]c2=O)cc1` [Compound 12] as the molecule, how does the IC50 at 72 h [1] read?
Answer: 43.1 nM

Question: And the neutrophil count (neutrophil count)?
Answer: had no obvious effect on neutrophils

Question: What about the “distribution of blood flow” value [2] of the same molecule?
Answer: did not significantly affect the distribution of blood flow in tissues except tumor tissues

Question: And the “intratumoral blood flow distribution” value [2]?
Answer: can significantly reduce the intratumoral blood flow distribution

Question: And the IC50 [3]?
Answer: 45.5 nM

Question: What about the cell membrane blebbing (tubulin in HuVEC cells) of the same molecule?
Answer: induced

Question: And the microtubule depolymerization (tubulin in HuVEC cells)?
Answer: induced

Question: And the IC50 [4]?
Answer: 136 nM

Question: And the IC50 [5]?
Answer: 35.3 nM

Question: What about the IC50 [6] of the same molecule?
Answer: 37.3 nM

Question: And the “anti-tumor proliferation effect” value [7]?
Answer: can effectively exert anti-tumor proliferation effects

Question: Which results are given for `CC(C)(C)c1[nH]cnc1/C=c1\[nH]c(=O)/c(=C/C=C/c2cccc(C#N)c2)[nH]c1=O` [Compound 15]?
Answer: IC50 at 72 h [1]: 78.6 nM; neutrophil count (neutrophil count): had no obvious effect on neutrophils; distribution of blood flow in tissues except tumor tissues [2]: did not significantly affect the distribution of blood flow in tissues except tumor tissues; intratumoral blood flow distribution [2]: can significantly reduce the intratumoral blood flow distribution; IC50 [3]: 123 nM; cell membrane blebbing (tubulin in HuVEC cells): induced; microtubule depolymerization (tubulin in HuVEC cells): induced; IC50 [4]: 78.8 nM; IC50 [5]: 63.5 nM; IC50 [6]: 94.9 nM; anti-tumor proliferation effect (tumor weight) [7]: can effectively exert anti-tumor proliferation effects

Question: What does the source list for `CC(C)(C)c1[nH]cnc1/C=c1\[nH]c(=O)/c(=C/C=C/c2cc(F)ccc2Cl)[nH]c1=O` [Compound 17]?
Answer: IC50 at 72 h [1]: 35 nM; stability, overall finding ([8]; 10-day accelerated test: 40° C., 60° C., humidity 75%, humidity 92.5%, light): stable; Content ([8]; Day 0): 99.8%; Maximum single impurity ([8]; Day 0): 0.03 (RRT: 0.31) %; Moisture ([8]; Day 0): 0.1%; Total impurity ([8]; Day 0): 0.06%; Content ([8]; Day 5, 40° C.): 100.9%; Maximum single impurity ([8]; Day 5, 40° C.): 0.02 (RRT: 0.31) %; Moisture ([8]; Day 5, 40° C.): 0.1%; Total impurity ([8]; Day 5, 40° C.): 0.05%; Content ([8]; Day 5, 60° C.): 99.0%; Maximum single impurity ([8]; Day 5, 60° C.): 0.03 (RRT: 0.31) %; Moisture ([8]; Day 5, 60° C.): 0.2%; Total impurity ([8]; Day 5, 60° C.): 0.06%; Content ([8]; Day 5, humidity 75%): 99.5%; Maximum single impurity ([8]; Day 5, humidity 75%): 0.02 (RRT: 0.32) %; Moisture ([8]; Day 5, humidity 75%): 0.2%; Total impurity ([8]; Day 5, humidity 75%): 0.07%; Content ([8]; Day 5, humidity 92.5%): 99.5%; Maximum single impurity ([8]; Day 5, humidity 92.5%): 0.02 (RRT: 0.31) %; Moisture ([8]; Day 5, humidity 92.5%): 0.3%; Total impurity ([8]; Day 5, humidity 92.5%): 0.07%; Content ([8]; Day 5, light): 100.3%; Maximum single impurity ([8]; Day 5, light): 0.04 (RRT: 0.31) %; Moisture ([8]; Day 5, light): 0.1%; Total impurity ([8]; Day 5, light): 0.07%; Content ([8]; Day 10, 40° C.): 100.5%; Maximum single impurity ([8]; Day 10, 40° C.): 0.04 (RRT: 0.31) %; Moisture ([8]; Day 10, 40° C.): 0.1%; Total impurity ([8]; Day 10, 40° C.): 0.07%; Content ([8]; Day 10, 60° C.): 99.7%; Maximum single impurity ([8]; Day 10, 60° C.): 0.03 (RRT: 0.31) %; Moisture ([8]; Day 10, 60° C.): 0.2%; Total impurity ([8]; Day 10, 60° C.): 0.08%; Content ([8]; Day 10, humidity 75%): 99.0%; Maximum single impurity ([8]; Day 10, humidity 75%): 0.04 (RRT: 0.31) %; Moisture ([8]; Day 10, humidity 75%): 0.2%; Total impurity ([8]; Day 10, humidity 75%): 0.11%; Content ([8]; Day 10, humidity 92.5%): 99.4%; Maximum single impurity ([8]; Day 10, humidity 92.5%): 0.03 (RRT: 0.31) %; Moisture ([8]; Day 10, humidity 92.5%): 0.3%; Total impurity ([8]; Day 10, humidity 92.5%): 0.08%; Content ([8]; Day 10, light): 99.6%; Maximum single impurity ([8]; Day 10, light): 0.04 (RRT: 0.31) %; Moisture ([8]; Day 10, light): 0.1%; Total impurity ([8]; Day 10, light): 0.09%; Content [8, 10]: 100.4%; Maximum single impurity [8, 10]: 0.03 (RRT: 0.31) %; Moisture [8, 10]: 0.1%; Total impurity [8, 10]: 0.08%; neutrophil count (neutrophil count): had no obvious effect on neutrophils; distribution of blood flow in tissues except tumor tissues [2]: did not significantly affect the distribution of blood flow in tissues except tumor tissues; intratumoral blood flow distribution [2]: can significantly reduce the intratumoral blood flow distribution; IC50 [3]: 20.4 nM; cell membrane blebbing (tubulin in HuVEC cells): induced; microtubule depolymerization (tubulin in HuVEC cells): induced; IC50 [4]: 14.6 nM; IC50 [5]: 10.8 nM; IC50 [6]: 7.25 nM; anti-tumor proliferation effect (tumor weight) [7]: can effectively exert anti-tumor proliferation effects; inhibition of tumor proliferation (tumor volume) ([9]; nude mice inoculated with tumor cells (FIG. 2A)): can effectively inhibit the proliferation of tumor in vivo

Question: With `CC(=O)O[C@H]1C(=O)[C@@]2(C)[C@H]([C@H](OC(=O)c3ccccc3)[C@]3(O)C[C@H](OC(=O)[C@H](O)[C@@H](NC(=O)c4ccccc4)c4ccccc4)C(C)=C1C3(C)C)[C@]1(OC(C)=O)CO[C@@H]1C[C@@H]2O` [Paclitaxel, paclitaxel, reference compound] as the molecule, how does the microtubule depolymerization (tubulin in HuVEC cells) read?
Answer: did not induce microtubule depolymerization

Question: Which results are given for `CC(=O)O[C@@]12CO[C@@H]1C[C@H](O)[C@@]1(C)C(=O)[C@H](O)C3=C(C)[C@@H](OC(=O)[C@H](O)[C@@H](NC(=O)OC(C)(C)C)c4ccccc4)C[C@@](O)([C@@H](OC(=O)c4ccccc4)[C@H]21)C3(C)C` [docetaxel, reference compound]?
Answer: neutrophil count (neutrophil count): can significantly reduce the neutrophil count; blood neutrophil count (blood neutrophil count): neutrophil count decrease caused by docetaxel; anti-tumor proliferation effect (tumor weight) [7]: relatively poor pharmacodynamic effect; change of body weight (toxicity) ([9]; mouse, in vivo): weight loss of animals caused by the toxicity of docetaxel

Question: Which results are given for `CC(C)(C)c1[nH]cnc1/C=C1\NC(=O)[C@H](Cc2ccccc2)NC1=O` [tert-butyl-phenylahistin, reference compound]?
Answer: cell membrane blebbing (tubulin in HuVEC cells): induced; microtubule depolymerization (tubulin in HuVEC cells): induced
